One may read the IC50 as the concentration needed to halve the response being measured.

Read-outs that look alike come from different tables or passages of the source. A value given as a limit tells only on which side of the number the result lay.

Results on 24 compounds are retold here after patent US20020169101A1, “Treatment of sexual dysfunction” (priority 1999, published 2002).

The target of one experiment is T1, human NMB receptor (BB1) (Homo sapiens, UniProt P28336).
T1 construct: expressed in transfected cells; membranes prepared from the cells
Put plainly: BB1 binding assay ([125I][Tyr4]bombesin displacement, CHO-K1 membranes). As to the method:
(§1) In the following experiments, measurement of BB1 and BB2 binding was as follows. CHO-K1 cells stably expressing cloned human NMB (for (BB1 assay) and GRP receptors (for BB2 assay) were routinely grown in Ham's F12 culture medium supplemented with 10% foetal calf serum and 2 mM glutamine. For binding experiments, cells were harvested by trypsinization, and stored frozen at −70° C. in Ham's F12 culture medium containing 5% DMSO until required. On the day of use, cells were thawed rapidly, diluted with an excess of culture medium, and centrifuged for 5 minutes at 2000 g. Cells were resuspended in 50 mM Tris-HCl assay buffer (pH 7.4 at 21° C., containing 0.02% BSA, 40 μg/mL bacitracin, 2 μg/mL chymostatin, 4 μg/mL leupeptin, and 2 μM phosphoramidon), counted, and polytronned (setting 5, 10 sec) before centrifuging for 10 minutes at 28,000 g. The final pellet was resuspended in assay buffer to a final cell concentration of 1.5×10^5/mL. For binding assays, […] aliquots of membranes were incubated with [^125I][Tyr^4]bombesin (<0.1 nM) in the presence and absence of test compounds (final assay volume 250 μL) for 60 minutes and 90 minutes for NMB and GRP receptors, respectively. Nonspecific binding was defined by 1 μM bombesin. Assays were terminated by rapid filtration under vacuum onto Whatman GF/C filters presoaked in 0.2% PEI for >2 hours, and washed 50 mM Tris-HCl (pH 6.9 at 21° C.; 6×1 mL). Radioactivity bound was determined using a gamma counter.
(§2) All competition data was analysed using nonlinear regression utilizing iterative curve-plotting procedures in Prism® (GraphPad Software Inc., San Diego, USA). IC50 values were corrected to Ki values using the Cheng-Prusoff equation (Cheng Y., Prusoff W. H., Biochem. Pharmacol. 22: 3099-3108, 1973). obtained are listed in Table 1.

The target of the next experiment is T2, human GRP receptor (BB2) (Homo sapiens, UniProt P30550).
T2 construct: expressed in transfected cells; membranes prepared from the cells
Put plainly: BB2 binding assay ([125I][Tyr4]bombesin displacement, CHO-K1 membranes). As to the method: as §1, §2

Where [1] appears, read: second 'TABLE 4', N-terminal urethane derivatives of Intermediate III-7.
Setting [2] is: Table 3, N-acyl derivatives of Intermediate III-7.

T1 sequence (P28336 whole entry): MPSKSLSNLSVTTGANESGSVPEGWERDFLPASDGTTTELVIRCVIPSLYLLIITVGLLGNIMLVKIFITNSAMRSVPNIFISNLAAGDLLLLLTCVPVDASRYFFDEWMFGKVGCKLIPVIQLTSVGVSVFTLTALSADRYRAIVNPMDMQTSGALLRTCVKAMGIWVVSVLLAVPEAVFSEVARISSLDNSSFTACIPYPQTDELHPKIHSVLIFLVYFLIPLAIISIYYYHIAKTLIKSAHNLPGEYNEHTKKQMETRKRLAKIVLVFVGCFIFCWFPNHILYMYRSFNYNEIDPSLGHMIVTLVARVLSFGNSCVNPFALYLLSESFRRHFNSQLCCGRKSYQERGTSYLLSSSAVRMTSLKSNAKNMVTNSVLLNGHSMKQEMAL
T2 sequence (P30550 whole entry): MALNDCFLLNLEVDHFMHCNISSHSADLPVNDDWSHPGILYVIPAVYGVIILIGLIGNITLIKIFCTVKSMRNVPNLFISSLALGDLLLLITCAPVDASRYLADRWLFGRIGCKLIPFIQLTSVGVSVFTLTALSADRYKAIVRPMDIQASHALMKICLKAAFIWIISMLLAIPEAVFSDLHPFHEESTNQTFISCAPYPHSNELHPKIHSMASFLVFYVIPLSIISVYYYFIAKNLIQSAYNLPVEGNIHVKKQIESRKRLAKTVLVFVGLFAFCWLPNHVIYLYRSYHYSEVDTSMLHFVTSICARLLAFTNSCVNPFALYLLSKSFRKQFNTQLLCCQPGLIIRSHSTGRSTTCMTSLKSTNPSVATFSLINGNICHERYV

Consider `COc1ccc(COC(=O)N[C@@](C)(Cc2c[nH]c3ccccc23)C(=O)NCC2(c3ccccn3)CCCCC2)cc1OC` [Example 88, {(S)-2-(1H-Indol-3-yl)-1-methyl-1-[(1-pyridin-2-yl-cyclohexylmethyl)-carbamoyl]-ethyl}-carbamic acid 3,4-dimethoxy-benzyl ester], for which the IC50 on human NMB receptor (BB1) (setting [1]) is 1760 nM; on human GRP receptor (BB2) (setting [1]), over 10000 nM.

For the compound `C[C@@](Cc1c[nH]c2ccccc12)(NC(=O)Cc1ccc(O)cc1)C(=O)NCC1(c2ccccn2)CCCCC1` [Example 52, (S)-2-[2-(4-Hydroxy-phenyl)-ethanoylamino]-3-(1H-indol-3-yl)-2-methyl-N-(1-pyridin-2-yl-cyclohexylmethyl)-propionamide], the IC50 was 3130 nM on human NMB receptor (BB1) (setting [2]) and over 10000 nM on human GRP receptor (BB2) (setting [2]).

`C[C@@](Cc1c[nH]c2ccccc12)(NS(=O)(=O)c1ccc(F)cc1)C(=O)NCC1(c2ccccn2)CCCCC1` [Example 122]: the figures for the IC50 on human NMB receptor (BB1) and at human GRP receptor (BB2) were 560 nM and 4160 nM, respectively.

`COc1ccc(C(=O)N[C@@](C)(Cc2c[nH]c3ccccc23)C(=O)NCC2(c3ccccn3)CCCCC2)cc1` [Example 35, N—{(S)-2-(1H-Indol-3-yl)-1-methyl-1-[(1-pyridin-2-yl-cyclohexylmethyl)-carbamoyl]-ethyl}-4-methoxy-benzamide]: the IC50 is 2880 nM at human NMB receptor (BB1) (setting [2]) and over 10000 nM on human GRP receptor (BB2) (setting [2]).

For the compound `C[C@@](Cc1c[nH]c2ccccc12)(NS(=O)(=O)c1cccc2cccnc12)C(=O)NCC1(c2ccccn2)CCCCC1` [Example 120, (S)-3-(1H-indol-3-yl)-2-methyl-N-(1-pyridin-2-yl-cyclohexylmethyl)-2-(quinoline-8-sulfonylamino)-propionamide], the IC50 on human NMB receptor (BB1) is 108 nM; at human GRP receptor (BB2) it was over 10000 nM.

For `COc1ccccc1COC(=O)N[C@@](C)(Cc1c[nH]c2ccccc12)C(=O)NCC1(c2ccccn2)CCCCC1` [Example 100, {(S)-2-(1H-Indol-3-yl)-1-methyl-1-[(1-pyridin-2-yl-cyclohexylmethyl)-carbamoyl]-ethyl}-carbamic acid 2-methoxy-benzyl ester], the half-maximal inhibitory concentration (IC50) was 818 nM at human NMB receptor (BB1) (setting [1]) and over 10000 nM on human GRP receptor (BB2) (setting [1]).

In the case of `C[C@@](Cc1c[nH]c2ccccc12)(NS(=O)(=O)c1cccc2ccccc12)C(=O)NCC1(c2ccccn2)CCCCC1` [Example 115, (S)-3-(1H-indol-3-yl)-2-methyl-2-(naphthalene-1-sulfonylamino)-N-(1-pyridin-2-yl-cyclohexylmethyl)-propionamide], the values for the IC50 at human NMB receptor (BB1) and on human GRP receptor (BB2) were 185 nM and 1580 nM, respectively.

As for `Cc1cccc(C(=O)N[C@@](C)(Cc2c[nH]c3ccccc23)C(=O)NCC2(c3ccccn3)CCCCC2)c1` [Example 43, N—{(S)-2-(1H-Indol-3-yl)-1-methyl-1-[(1-pyridin-2-yl-cyclohexylmethyl)-carbamoyl]-ethyl}-3-methyl-benzamide], the IC50 at human NMB receptor (BB1) (setting [2]) was 2350 nM; at human GRP receptor (BB2) (setting [2]), over 10000 nM.

Consider `C[C@@](Cc1c[nH]c2ccccc12)(NC(=O)OCc1ccc(C(F)(F)F)cc1)C(=O)NCC1(c2ccccn2)CCCCC1` [Example 101, {(S)-2-(1H-Indol-3-yl)-1-methyl-1-[(1-pyridin-2-yl-cyclohexylmethyl)-carbamoyl]-ethyl}-carbamic acid 4-trifluoromethyl-benzyl ester], for which the IC50 was 1100 nM at human NMB receptor (BB1) (setting [1]) and over 10000 nM at human GRP receptor (BB2) (setting [1]).

For `C[C@@](Cc1c[nH]c2ccccc12)(NC(=O)c1cccc2cccnc12)C(=O)NCC1(c2ccccn2)CCCCC1` [Example 79, Quinoline-8-carboxylic acid {(S)-2-(1H-indol-3-yl)-1-methyl-1-[(1-pyridin-2-yl-cyclohexylmethyl)-carbamoyl]-ethyl}-amide], the figures for the IC50 at human NMB receptor (BB1) (setting [2]) and on human GRP receptor (BB2) (setting [2]) were 4480 nM and over 10000 nM, respectively.

For the compound `C[C@@](Cc1c[nH]c2ccccc12)(NC(=O)Cc1ccccc1[N+](=O)[O-])C(=O)NCC1(c2ccccn2)CCCCC1` [Example 84, (S)-3-(1H-Indol-3-yl)-2-methyl-2-[2-(2-nitro-phenyl)-ethanoylamino]-N-(1-pyridin-2-yl-cyclohexylmethyl)-propionamide], the figures for the IC50 on human NMB receptor (BB1) (setting [2]) and on human GRP receptor (BB2) (setting [2]) were 1980 nM and over 10000 nM, respectively.

Consider `C[C@@](Cc1c[nH]c2ccccc12)(NC(=O)c1ccc2cc[nH]c2c1)C(=O)NCC1(c2ccccn2)CCCCC1` [Example 66, 1H-Indole-6-carboxylic acid {(S)-2-(1H-indol-3-yl)-1-methyl-1-[(1-pyridin-2-yl-cyclohexylmethyl)-carbamoyl]-ethyl}-amide], for which the figures for the IC50 on human NMB receptor (BB1) (setting [2]) and on human GRP receptor (BB2) (setting [2]) were 1600 nM and over 10000 nM, respectively.

Take `C[C@@](Cc1c[nH]c2ccccc12)(NC(=O)OCc1cccc(C#N)c1)C(=O)NCC1(c2ccccn2)CCCCC1` [Example 103, {(S)-2-(1H-Indol-3-yl)-1-methyl-1-[(1-pyridin-2-yl-cyclohexylmethyl)-carbamoyl]-ethyl}-carbamic acid 3-cyano-benzyl ester]: the IC50 at human NMB receptor (BB1) (setting [1]) was 85 nM; on human GRP receptor (BB2) (setting [1]), over 10000 nM.

In the case of `C[C@@](Cc1c[nH]c2ccccc12)(NS(=O)(=O)c1ccc(Cl)cc1)C(=O)NCC1(c2ccccn2)CCCCC1` [Example 116], the IC50 on human NMB receptor (BB1) worked out at 373 nM; on human GRP receptor (BB2), 4390 nM.

As for `COc1cccc(S(=O)(=O)N[C@@](C)(Cc2c[nH]c3ccccc23)C(=O)NCC2(c3ccccn3)CCCCC2)c1` [Example 145], the IC50 on human NMB receptor (BB1) turned out to be 295 nM; at human GRP receptor (BB2), 3690 nM.

Turning to `C[C@@](Cc1c[nH]c2ccccc12)(NC(=O)c1cccc2cc[nH]c12)C(=O)NCC1(c2ccccn2)CCCCC1` [Example 69, 1H-Indole-7-carboxylic acid {(S)-2-(1H-indol-3-yl)-1-methyl-1-[(1-pyridin-2-yl-cyclohexylmethyl)-carbamoyl]-ethyl}-amide], the IC50 was 1370 nM on human NMB receptor (BB1) (setting [2]) and over 10000 nM on human GRP receptor (BB2) (setting [2]).

Regarding `COc1ccccc1C(=O)N[C@@](C)(Cc1c[nH]c2ccccc12)C(=O)NCC1(c2ccccn2)CCCCC1` [Example 46, N—{(S)-2-(1H-Indol-3-yl)-1-methyl-1-[(1-pyridin-2-yl-cyclohexylmethyl)-carbamoyl]-ethyl}-2-methoxy-benzamide], the figures for the IC50 at human NMB receptor (BB1) (setting [2]) and at human GRP receptor (BB2) (setting [2]) were 2560 nM and over 10000 nM, respectively.

Consider `C[C@@](Cc1c[nH]c2ccccc12)(NC(=O)OCc1cccc([N+](=O)[O-])c1)C(=O)NCC1(c2ccccn2)CCCCC1` [Example 99, {(S)-2-(1H-Indol-3-yl)-1-methyl-1-[(1-pyridin-2-yl-cyclohexylmethyl)-carbamoyl]-ethyl}-carbamic acid 3-nitro-benzyl ester], for which the values for the IC50 on human NMB receptor (BB1) (setting [1]) and on human GRP receptor (BB2) (setting [1]) were 17 nM and 612 nM, respectively.

Take `C[C@@](Cc1c[nH]c2ccccc12)(NC(=O)OCc1ccccc1F)C(=O)NCC1(c2ccccn2)CCCCC1` [Example 94, {(S)-2-(1H-Indol-3-yl)-1-methyl-1-[(1-pyridin-2-yl-cyclohexylmethyl)-carbamoyl]-ethyl}-carbamic acid 2-fluoro-benzyl ester]: the IC50 at human NMB receptor (BB1) (setting [1]) is 923 nM; at human GRP receptor (BB2) (setting [1]) it was over 10000 nM.

Take `Cc1cccc(CC(=O)N[C@@](C)(Cc2c[nH]c3ccccc23)C(=O)NCC2(c3ccccn3)CCCCC2)c1` [Example 54, (S)-3-(1H-Indol-3-yl)-2-methyl-N-(1-pyridin-2-yl-cyclohexylmethyl)-2-(2-m-tolyl-ethanoylamino)-propionamide]: the half-maximal inhibitory concentration (IC50) at human NMB receptor (BB1) (setting [2]) is 817 nM; at human GRP receptor (BB2) (setting [2]), over 10000 nM.

In the case of `C[C@@](Cc1c[nH]c2ccccc12)(NC(=O)OCc1cccc(Cl)c1Cl)C(=O)NCC1(c2ccccn2)CCCCC1` [Example 109, {(S)-2-(1H-Indol-3-yl)-1-methyl-1-[(1-pyridin-2-yl-cyclohexylmethyl)-carbamoyl]-ethyl}-carbamic acid 2,3-dichloro-benzyl ester], the IC50 at human NMB receptor (BB1) (setting [1]) is 152 nM; on human GRP receptor (BB2) (setting [1]) it was over 10000 nM.

For `C[C@@](Cc1c[nH]c2ccccc12)(NS(=O)(=O)c1cccc(Cl)c1)C(=O)NCC1(c2ccccn2)CCCCC1` [Example 130], the IC50 on human NMB receptor (BB1) was found to be 331 nM; at human GRP receptor (BB2) it was 2690 nM.

Turning to `Cc1ccc(Oc2ccccc2S(=O)(=O)N[C@@](C)(Cc2c[nH]c3ccccc23)C(=O)NCC2(c3ccccn3)CCCCC2)cc1` [Example 153, (S)-3-(1H-indol-3-yl)-2-methyl-N-(1-pyridin-2-yl-cyclohexylmethyl)-2-(2-p-tolyloxy-benzenesulfonylamino)-propionamide], the IC50 on human NMB receptor (BB1) was 90 nM; at human GRP receptor (BB2), over 10000 nM.

In the case of `Cc1ccc(CC(=O)N[C@@](C)(Cc2c[nH]c3ccccc23)C(=O)NCC2(c3ccccn3)CCCCC2)cc1` [Example 50, (S)-3-(1H-Indol-3-yl)-2-methyl-N-(1-pyridin-2-yl-cyclohexylmethyl)-2-(2-p-tolyl-ethanoylamino)-propionamide], the values for the IC50 at human NMB receptor (BB1) (setting [2]) and at human GRP receptor (BB2) (setting [2]) were 944 nM and over 10000 nM, respectively.
